Laboratory results: US4977189A, “Substituted guanidinedicarbonyl derivatives” (American Cyanamid Company, priority 1988, dated 1990)
“And” between values parts separate entries of the source, which are not always exact repeats. Equal entries are not always repeated.

Key:
Royal Hart mice = test: Hypoxic Survival Test; assay type: in vivo, mouse (Royal Hart); settings: Mus musculus, ip, 5 min, 30 minutes prior, 10% oxygen, survival after 5 minutes, read-out: % Survivors; for responders at 50 mg/kg: 50 mg/kg intraperitoneally; for responders at 100 mg/kg: 100 mg/kg intraperitoneally
Protocol: A useful in vivo test that measures how effectively central nervous system-acting drugs enhance survival in a hypoxic environment, presumably by improving the ratio of energy supply to demand is known as the Hypoxic Survival Test. […] Drugs are tested by intraperitoneally injecting groups of mice 30 minutes prior to placing them in a hypoxic mixture and measuring survival. The rationale of this test is that drugs which enhance survival under hypoxic conditions without concomitant, depression or sedative side effects, may do so by enhancing energy metabolism, or by preserving normal brain function under conditions of reduced energy metabolism. Given the dependence of the brain on a constant supply of energy, drugs which have this property may have many far-reaching therapeutic indications, including recovery from stroke and closed head injury, as well as reducing the deleterious effects of the aging central nervous system.
Groups of 20 Royal Hart mice (6 weeks of age) are injected intraperitoneally with test compound (1-200 mg/kg) 30 minutes prior to placing them in a hypoxic mixture (10% oxygen in 90% […]) and measuring survival after 5 minutes.
A separate group of 20 mice is injected intraperitoneally with saline solution (0.01 cc/g of body weight) and processed as described above.
Still another group of 20 mice is injected intraperitoneally with 0.125 mg/kg of physostigmine and processed as described above.

[1] = test system: Brain-Specific Receptors (3H-benzodiazepine binding); test: Inhibition of the Binding of 3H-Benzodiazepine to Brain-Specific Receptors of Rats; design: species or system rat (male albino, Wistar strain; whole cortex); settings: 3H-diazepam (1.5 nM) or 3H-flunitrazepam (1.0 nM); rat cortex P2-fraction; 30 minutes in ice; test concentration not given
Description: A test utilized for the determination of anxiolytic activity is the measurement of the ability of test compounds to inhibit the binding of tritiated benzodiazepines to brain-specific recptors of warm-blooded animals. A modification of the method described by R. F. Squires, et al., Nature, 266, No. 21, pg 732 (April, 1977) and H. Mohler, et al., Science, 198, pg 849 (1977) was employed.
Male albino rats (Wistar strain, weighing 150-200 g each) were used. The test compounds were solubilized in either dimethylformamide, acetic acid, ethanol or hydrochloric acid.
Whole cortex of rats was homogenized gently in 20 volumes of ice-cold 0.32M sucrose, centrifuged twice at 1000 g for 10 minutes and then recentrifuged at 30,000 g for 20 minutes to produce a crude P2 -synaptosomal fraction. The P2 -fraction was either: (1) resuspended in twice the original volume in hypotonic 50 mM Tris.HCl (pH 7.4), or (2) resuspended in one-half the original volume in hypotonic 10 mM Tris.HCl (pH 7.4) and frozen (-20° C.) until time of use. Frozen P2 preparations were thawed and resuspended in four times the original homogenizing volume at time of assay.
The binding assay consisted of 300 μl of the P2 -fraction suspension (0.2-0.4 mg protein), 100 μl of test drug and 100 μl of ^3 H-diazepam (1.5 nM, final concentration) or ^3 H-flunitrazepam (1.0 nM, final concentration) which was added to 1.5 ml of 50 mM Tris.HCl (pH 7.4). Non-specific binding controls and total binding controls d 100 μl of diazepam (3 μM final concentration) and 100 μl of deionized water, respectively, in place of the test compound. Incubation for 30 minutes proceeded in ice and was terminated by filtration, under vacuum, through glass fiber filters. The filters were washed twice with 5 ml of ice-cold 50 mM Tris.HCl (pH 7.4) and placed in scintillation vials. After drying at 50°-60° C. for 30 minutes, 10 ml of diluent was added and the radioactivity determined in a scintillation counter.
Inhibition of binding was calculated by the difference between total binding and binding in the presence of test compound, divided by the total binding, X 100.

Swiss-Webster mice = test: Passive Avoidance Anoxic Induced Amnesia Test; assay type: in vivo, mouse (Swiss-Webster, middle-aged); settings: 50 mg/kg intraperitoneally, 30 minutes prior to training and testing; latency vs saline control; 30% considered active
Description: Another in vivo test associated with decreased neural function in mammals is the Passive-Avoidance Anoxic-Induced-Amnesia Test. This test is used to determine the attenuation of anoxic induced amnesia in mice treated with drug, as compared to saline treated control animals with no drug.
A shock-motivated, single trial, step-through passive avoidance procedure is used. Groups of 25 Swiss-Webster, middle-aged mice (9 months of age) are placed singly in the front chamber of a 2-chamber box and are allowed to voluntarily cross into the rear chamber. As soon as the mouse enters the rear chamber, a door automatically traps the animal and a mild electric shock (0.4 mA for 4 seconds) is delivered to its feet. Following the foot shock, the mice are initially placed in an anoxic environment (0% oxygen) for 12 seconds, which quickly induces unconsciousness. They are then placed in a hypoxic environment (15% oxygen) for four minutes which prolongs the oxygen deprived state, maintaining unconsciousness. All testing is performed 24 hours later, and in all cases the mice appear fully recovered from the previous anoxic/hypoxic treatment. All test compounds are administered intraperitoneally at a dose of 10-200 mg/kg, 30 minutes prior to training and testing. […]
The latency to enter the rear chamber is recorded for both training and testing. […]

Row | Structure (SMILES) | responders at 50 mg/kg (Royal Hart mice) [%] | responders at 100 mg/kg (Royal Hart mice) [%] | % Inhibition [1] [%] | % Improvement (Swiss-Webster mice) | responders at 200 mg/kg (Royal Hart mice; 200 mg/kg intraperitoneally) [%]
1 | Cc1cccc(C(=O)N=C(NC(=O)c2cccc(C)c2)Nc2ccc(C(N)=O)cc2)c1 [N,N'-[[4-(Aminocarbonyl)phenyl]carbonimidoyl]bis[3-methylbenzamide]] | 40 | 43 | 25 |  | 
2 | NC(=O)c1ccc(N=C(NC(=O)c2ccccc2)NC(=O)c2ccccc2)cc1 [N,N'-[[[4-(Aminocarbonyl)phenyl]imino]methylene]bis[benzamide]] | 40 | 62 |  | 50% and 54% | 47
3 | COc1ccc(C(=O)NC(=NC(=O)c2cccs2)Nc2cccc(C(N)=O)c2)cc1 [N-[[[3-(Aminocarbonyl)phenyl]amino][(4-methoxybenzoyl)amino]methylene]-2-thiophenecarboxamide] | 45 | 45 | 19 |  | 
4 | COc1ccc(C(=O)NC(=NC(=O)c2ccsc2)Nc2ccc(C(N)=O)cc2)cc1 [N-[[[4-(Aminocarbonyl)phenyl]amino][(4-methoxybenzoyl)amino]methylene]-3-thiophenecarboxamide] |  |  | 14 |  | 
5 | Cc1ccc(C(=O)NC(=NC(=O)c2cccc(C)c2)Nc2ccc(C(N)=O)cc2)cc1 [N-[[[4-(Aminocarbonyl)phenyl]amino][(4-methylbenzoyl)amino]methylene]-3-methylbenzamide] |  |  | 85 |  | 
